Reference: US20090012088A1 (priority 2005, published 2009)
“Also recorded” adds a separate entry of the source. Like-named read-outs stand apart in the source and are kept apart here.

Key:
[1] = tested on: neuronally differentiated PC-12 cells; assay: Protection from rotenone induced toxicity in neuronally differentiated PC-12 cells; type: cell-based
Description: Rotenone is a complex I poison and is widely used in cell culture and animal models of PD. (20, 31, 32) To determine if PIP-1 protects cells from rotenone insult, PC-12 cells are neuronally differentiated (with neuronal growth factor β for 10 days) and then treated with 10 μM rotenone and a range of PIP-1 concentrations. After 72 hours, cell death is assessed using propidium iodide staining as measured by flow cytometry. […] To determine the features on PIP-1 that are important for PARG inhibition and cell protection, three derivatives are constructed that lacked key functionality (see FIG. 19 compounds labeled 3, 4 and 5).
Cell culture conditions: HL-60 and SK-N-SH cells are grown in RPMI 1640 media supplemented with 10% FBS and PC-12 cells are grown in RPMI 1640 media supplemented with 10% HS and 5% FBS. All cell lines are incubated at 37° C. in a 5% CO2, 95% air atmosphere. HL-60 cells are split every two to three days as needed and SK-N-SH cells are split when they reach approximately 90% confluency at a 1:6 ratio. SK-N-SH cells are differentiated by adding media containing 10 μM retinoic acid (in DMSO). Media is replaced every other day and cells are differentiated for a total of 12 days. PC-12 cells are differentiated by adding media containing 25 ng/mL Neuronal Growth Factro β. Media is replaced every other day and cells are differentiated for a total of 10 days. Differentiation is observed by microscopy.
(§1) Protection of Rotenone and MPP^+ induced toxicity in PC-12 and SK-N-SH cells: SK-N-SH and PC-12 cells are neuronally differentiated as described above. 10 μM rotenone, 10 μM MPP^+ and various concentrations of PIP-1 or its derivatives are added to the cells and incubated for 72 h. The cells are then washed in PBS and the viability is determined by adding propidium iodide to 1 μg/mL and measuring the fluorescent intensity of each cell by flow cytometry.

PARG [2] = target: PARG (Bos taurus, UniProt O02776); assay: Inhibition of PARG activity in vitro (quantitation of free ADP-ribose with benzamidine, fluorescence); type: biochemical; parameters: purchased Biomol
PARG (Bos taurus, UniProt O02776), sequence (O02776 whole entry): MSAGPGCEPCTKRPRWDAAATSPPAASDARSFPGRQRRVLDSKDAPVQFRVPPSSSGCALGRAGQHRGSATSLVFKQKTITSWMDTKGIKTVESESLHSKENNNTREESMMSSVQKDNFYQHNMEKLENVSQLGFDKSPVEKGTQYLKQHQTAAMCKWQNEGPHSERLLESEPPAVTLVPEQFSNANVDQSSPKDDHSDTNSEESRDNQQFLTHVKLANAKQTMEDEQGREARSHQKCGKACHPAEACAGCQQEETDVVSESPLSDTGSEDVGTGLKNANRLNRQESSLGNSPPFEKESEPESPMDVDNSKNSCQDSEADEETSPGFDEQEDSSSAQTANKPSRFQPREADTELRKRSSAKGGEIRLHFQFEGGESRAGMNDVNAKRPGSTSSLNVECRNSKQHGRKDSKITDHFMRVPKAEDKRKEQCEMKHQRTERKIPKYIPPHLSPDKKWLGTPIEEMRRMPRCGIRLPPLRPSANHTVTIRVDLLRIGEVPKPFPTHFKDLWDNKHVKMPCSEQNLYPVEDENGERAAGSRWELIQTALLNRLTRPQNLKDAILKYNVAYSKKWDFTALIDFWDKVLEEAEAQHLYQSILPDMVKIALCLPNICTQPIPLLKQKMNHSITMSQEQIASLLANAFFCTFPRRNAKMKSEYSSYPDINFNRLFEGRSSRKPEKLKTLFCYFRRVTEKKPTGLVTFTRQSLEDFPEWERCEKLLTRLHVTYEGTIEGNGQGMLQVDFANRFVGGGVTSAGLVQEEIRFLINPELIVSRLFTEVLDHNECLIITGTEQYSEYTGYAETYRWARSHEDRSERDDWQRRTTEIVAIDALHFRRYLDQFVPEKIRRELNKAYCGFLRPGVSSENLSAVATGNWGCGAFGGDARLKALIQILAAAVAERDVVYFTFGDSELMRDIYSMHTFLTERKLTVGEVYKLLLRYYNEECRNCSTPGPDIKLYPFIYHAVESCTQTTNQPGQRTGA
Description: PARG assay: Production and purification of PAR. PARP-1 (20 units) is added to 900 μL of PARP assay buffer containing 1 mM NAD^+ and 22.5 μg activated DNA. This reaction was run at 37° C. for 30 min and stopped by the addition of 300 μL of cold 100% trichloroacetic acid. The proteins thus precipitated are collected by centrifugation at 18,000 g for 30 min at 4° C. After removal of the supernatant, 1 mL of 1 M NaOH and 100 mM EDTA are added to the pellet and incubated for 2 h at 37° C. to cleave the PAR from the PARP protein acceptor. Then 9 mL of PAR buffer A (250 mM ammonium acetate, 6 M guanidinium HCl, 10 mM EDTA, pH 9.0) is added to the PAR and applied to a PROSEP-PB (Millipore) phenyl boronate column that is pre-equilibrated with PAR buffer A. The flowthrough is then reapplied to the column to ensure that all PAR is bound. The column is then washed with 25 mL of PAR buffer A, followed by 10 mL of PAR buffer B (1 M ammonium acetate and 1 mM EDTA, pH 9.0). The bound PAR is eluted with 4 mL of water collected in 1-mL fractions. Fractions containing PAR are pooled and concentrated. The concentration, measured as monomer, is determined by measuring the absorbance at 258 nm. PAR has an extinction coefficient of 13,500 cm^−1 at 258 nm.
Inhibition of PARG Activity: To determine the PARG IC50 values of the compounds, 39 μL of a 25.6 μM solution of PAR in PARG assay (50 mM KCl, 50 mM KH2PO4, pH 7.2) buffer and 1 μL of the compounds at varying concentrations (in PARG assay buffer) are added into the wells of a 384-well plate. The reaction is initiated by the addition of 10 μL of PARG (Biomol) at a concentration of 1 ng/ml (in PARG assay buffer), bringing the final concentration to […] and 20 μM PAR with varying concentrations of compounds in a total volume of 50 μL. The plate is incubated for 20 min at room temperature. The amount of free ADP-ribose hemiacetals is determined by the addition of 5 μL of an aqueous 8.5M KOH solution and 5 μL of an aqueous 850 μM benzamidine solution to each well. The plate is then incubated for 10 min in an oven set at 110° C. The plate is allowed to cool and then read on a Criterion Analyst AD with an excitation of 360 nm and an emission of 445 nm.

[3] = tested on: neuronally differentiated PC-12 cells; assay: Protection from MPP+ induced toxicity in neuronally differentiated PC-12 cells; type: cell-based; details: 10 μM MPP+, read-out: EC50 (IC50) for protection from MPP+ induced cell death
Description: (§2) In vivo MPTP is metabolized to its active form, the 1-methyl-4-phenylpyridinium ion (MPP^+), and MPP^+ has proven very useful in a variety of cell culture models of PD. To determine the protective effect of PIP-1 on cells subjected to MPP^+ insult, PC-12 (differentiated as above) and SK-N-SH (differentiated with retinoic acid for 12 days) cells are treated with 10 μM MPP^+ and a range of PIP-1 concentrations, and cell death is assessed by propidium iodide staining and flow cytometry. […] As shown in FIGS. 20A and 20B, PIP-1 also protects differentiated PC-12 and SK-N-SH cells from rotenone-induced toxicity as well.
(§3) Cell culture conditions: HL-60 and SK-N-SH cells are grown in RPMI 1640 media supplemented with 10% FBS and PC-12 cells are grown in RPMI 1640 media supplemented with 10% HS and 5% FBS. All cell lines are incubated at 37° C. in a 5% CO2, 95% air atmosphere. HL-60 cells are split every two to three days as needed and SK-N-SH cells are split when they reach approximately 90% confluency at a 1:6 ratio. […]
as §1, with “10 μM rotenone, 10 μM MPP^+ and various concentrations of PIP-1 or its derivatives are added to the cells and incubated for 72 h.” left out

[4] = tested on: differentiated PC-12 and SK-N-SH cells; assay: Cellular toxicity in differentiated PC-12 and SK-N-SH cells; type: cell-based; details: at concentrations up to 100 μM
Description: as §2, §1

[5] = tested on: neuronally differentiated SK-N-SH cells; assay: Protection from rotenone induced toxicity in neuronally differentiated SK-N-SH cells; type: cell-based; details: Homo sapiens, 10 μM rotenone
Description: as §2, §3
as §1, with “10 μM rotenone, 10 μM MPP^+ and various concentrations of PIP-1 or its derivatives are added to the cells and incubated for 72 h.” left out

U-937 cells = assay: Protection against H2O2 treatment of U-937 cells (cell survival); type: cell-based; details: FIG. 13
Description: We have made multiple derivatives of PIP-1; these compounds are shown below in Table 2 and in FIG. 11 and labeled Structures 1-39. The neuroprotective effects of structures 1-26 were tested in the cellular assay and compared to the neuroprotective effect of PIP-1 (FIG. 13).
PIP-1 and structures 1-26 were screened for protection against H2O2 treatment of U-937 cells FIG. 13.

[6] = tested on: neuronally differentiated SK-N-SH cells; assay: Protection from MPP+ induced toxicity in neuronally differentiated SK-N-SH cells; type: cell-based; details: 10 μM MPP+, 72 h, read-out: EC50 (IC50) for protection from MPP+ induced cell death
Description: as §2, §3
as §1, with “10 μM rotenone, 10 μM MPP^+ and various concentrations of PIP-1 or its derivatives are added to the cells and incubated for 72 h.” left out

PARG [7] = assay: Table 2: small molecules tested for PARG inhibition activity (relative to PIP-1); type: biochemical

Compound	Protection of rotenone-treated neuronally differentiated PC-12 cells (in words) [1]	Protection of rotenone-treated neuronally differentiated PC-12 cells (in words) ([1]; listed as analogue 5)	PARG inhibition in vitro (in words) (PARG [2])	PARG inhibition in vitro (in words) (PARG [2]; listed as analogue 5)	EC50 ([3]; 72 h)	EC50 ([3]; Rattus norvegicus, PC-12, 72 h)	EC50 ([1]; Rattus norvegicus, differentiated PC-12 cells, 10 μM rotenone, 72 h, read-out: EC50 (IC50) for protection from rotenone induced toxicity)	IC50 (PARG [2])	Cellular toxicity / adverse effects on differentiated neurons [4]	EC50 [5]	Protection of U-937 cells treated with H2O2 (activity compared to PIP-1) (U-937 cells)	EC50 [6]	EC50 ([6]; Homo sapiens, SK-N-SH)	Activity (PARG [7])
Nc1c(Cl)cnn(-c2ccccc2)c1=O [compound 5, 4-Amino-5-chloro-2-phenyl-2H-pyridazin-3-one]	inactive	do not protect	inactive; also recorded: does not inhibit PARG	do not inhibit NAD^+ depletion or PARG activity										
CN(C)c1cnn(-c2ccccc2)c(=O)c1N [PIP-1, 4-Amino-5-dimethylamino-2-phenyl-2H-pyridazin-3-one]	protect		inhibits PARG in vitro in a dose-dependent manner; also recorded: inhibits PARG in vitro in a dose dependent manner; also recorded: inhibit PARG activity in vitro		1.81 µM	~1.8 µM	5.36 µM	0.49 µM	no adverse effects; also recorded: no cellular toxicity	2.18 µM	activity similar or better than PIP-1	1.64 µM	~1.8 µM	good
